# Measured values as given in PubChem BioAssay AID212 (DTP/NCI, 2004).
# Values joined by “and” are separate entries in the source; they are usually repeats but may differ in a detail not shown here. Identical values can stand only once. Results filed as inconclusive are left out.
# Tested on: BDF1 mice, colon carcinoma 38 sc, T/C %
# Test: NCI In Vivo Anticancer Drug Screen. Data for tumor model Colon Carcinoma 38 (subcutaneous) in B6D2F1 (BDF1) mice
# Conditions: endpoint: median tumor weight (est.), higher = larger tumour
# Method in brief: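 Compound antitumor activity was assessed in mice carrying transplantable tumors. Survival or tumor size was recorded, and each value is the treated-group measurement divided by that of the vehicle-treated control group.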
# [1] = dose: 12.5 mg/kg/injection, schedule: Q07DX002 (ip), vehicle: saline
# [2] = dose: 25.0 mg/kg/injection, schedule: Q07DX002 (ip), vehicle: saline
# [3] = dose: 100.0 mg/kg/injection, schedule: Q07DX002 (ip), vehicle: saline
# [4] = dose: 400.0 mg/kg/injection, schedule: Q07DX002 (ip), vehicle: saline
# [5] = dose: 12.5 mg/kg/injection, schedule: Q07DX002 (ip), vehicle: saline with Tween-80
# [6] = dose: 25.0 mg/kg/injection, schedule: Q07DX002 (ip), vehicle: saline with Tween-80
# [7] = dose: 50.0 mg/kg/injection, schedule: Q07DX002 (ip), vehicle: saline with Tween-80
# [8] = dose: 100.0 mg/kg/injection, schedule: Q07DX002 (ip), vehicle: saline with Tween-80
# [9] = dose: 6.25 mg/kg/injection, schedule: Q07DX002 (ip), vehicle: saline with Tween-80
# [10] = dose: 50.0 mg/kg/injection, schedule: Q07DX002 (ip), vehicle: saline
# [11] = dose: 200.0 mg/kg/injection, schedule: Q07DX002 (ip), vehicle: saline with Tween-80
# [12] = dose: 400.0 mg/kg/injection, schedule: Q07DX002 (ip), vehicle: saline with Tween-80
# [13] = dose: 25.0 mg/kg/injection, schedule: Q07DX002 (ip), vehicle: Klucel (hydroxypropylcellulose) (HPC)
# [14] = dose: 50.0 mg/kg/injection, schedule: Q07DX002 (ip), vehicle: Klucel (hydroxypropylcellulose) (HPC)
smiles,measurement,setting,value
COC(=O)[C@@H]1c2cc3c(c(O)c2[C@@H](OC)C[C@@]1(C)O)C(=O)c1c(O)cc2c(c1C3=O)OC1O[C@@]2(C)[C@H](O)[C@@H](N(C)C)[C@@H]1O,T/C,"dose: 6.25 mg/kg/injection, schedule: Q07DX002 (ip), vehicle: saline",101 % of control
same,T/C,[1],115 % of control and 121 % of control
same,T/C,"dose: 12.5 mg/kg/injection, schedule: Q07DX003 (ip), vehicle: suspension in saline",124 % of control
same,T/C,[2],102 % of control
same,T/C,"dose: 50.0 mg/kg/injection, schedule: Q07DX003 (ip), vehicle: suspension in saline",114 % of control
same,T/C,"dose: 100.0 mg/kg/injection, schedule: Q07DX003 (ip), vehicle: suspension in saline",106 % of control
same,T/C,"dose: 200.0 mg/kg/injection, schedule: Q07DX003 (ip), vehicle: suspension in saline",104 % of control
same,T/C,"dose: 400.0 mg/kg/injection, schedule: Q07DX003 (ip), vehicle: suspension in saline",85 % of control
ClCCCN1CCN(CCCCl)CC1,T/C,"dose: 12.5 mg/kg/injection, schedule: Q07DX002 (ip), vehicle: distilled water + alcohol",94 % of control
same,T/C,"dose: 25.0 mg/kg/injection, schedule: Q07DX002 (ip), vehicle: distilled water + alcohol",154 % of control
same,T/C,"dose: 50.0 mg/kg/injection, schedule: Q07DX002 (ip), vehicle: distilled water + alcohol",153 % of control and 207 % of control
same,T/C,"dose: 100.0 mg/kg/injection, schedule: Q07DX002 (ip), vehicle: distilled water + alcohol",39 % of control and 50 % of control
same,T/C,"dose: 200.0 mg/kg/injection, schedule: Q07DX002 (ip), vehicle: distilled water + alcohol",63 % of control
Nc1n[nH]c(N)n1,T/C,[3],84 % of control and 90 % of control and 105 % of control
same,T/C,"dose: 100.0 mg/kg/injection, schedule: Q07DX003 (ip), vehicle: saline with Tween-80",56 % of control
same,T/C,[4],65 % of control and 69 % of control and 71 % of control
same,T/C,"dose: 400.0 mg/kg/injection, schedule: Q07DX003 (ip), vehicle: saline with Tween-80",110 % of control
same,T/C,"dose: 800.0 mg/kg/injection, schedule: Q07DX003 (ip), vehicle: saline with Tween-80",102 % of control
same,T/C,"dose: 1600.0 mg/kg/injection, schedule: Q07DX002 (ip), vehicle: saline",71 % of control and 73 % of control and 81 % of control
N#Cc1c(N)[nH]c2ccc(Sc3ccccc3)cc12,T/C,[5],78 % of control
same,T/C,[6],97 % of control
same,T/C,[7],63 % of control
same,T/C,[8],73 % of control
CC1=C(/C=C/C(C)=C/C=C/C(C)=C/C=O)C(C)(C)CCC1,T/C,[8],116 % of control
CC(=O)OCc1cc(=O)n(C)c2c3c4c(cc12)c(C)cc(=O)n4CO3,T/C,"dose: 12.5 mg/kg/injection, schedule: Q07DX003 (ip), vehicle: Klucel (hydroxypropylcellulose) (HPC)",121 % of control and 106 % of control
same,T/C,"dose: 25.0 mg/kg/injection, schedule: Q07DX003 (ip), vehicle: Klucel (hydroxypropylcellulose) (HPC)",108 % of control
same,T/C,"dose: 50.0 mg/kg/injection, schedule: Q07DX003 (ip), vehicle: Klucel (hydroxypropylcellulose) (HPC)",83 % of control
same,T/C,"dose: 200.0 mg/kg/injection, schedule: Q07DX003 (ip), vehicle: Klucel (hydroxypropylcellulose) (HPC)",94 % of control
C=C1C(=O)C23[C@H](O)C1CC[C@H]2[C@]12COC3(O)[C@@H](O)[C@@H]1C(C)(C)CC[C@@H]2O,T/C,"dose: 1.56 mg/kg/injection, schedule: Q07DX002 (ip), vehicle: saline with Tween-80",104 % of control
same,T/C,"dose: 3.12 mg/kg/injection, schedule: Q07DX002 (ip), vehicle: saline with Tween-80",112 % of control and 96 % of control
same,T/C,[9],100 % of control
same,T/C,[5],80 % of control
C(COCCOCC1CO1)OCCOCC1CO1 (configuration not stated),T/C,[5],88 % of control
same,T/C,[1],102 % of control
same,T/C,[10],158 % of control
same,T/C,[3],84 % of control
same,T/C,[11],113 % of control
same,T/C,[12],99 % of control
same,T/C,[4],68 % of control
C=CS(=O)(=O)c1ccccc1,T/C,[9],91 % of control
same,T/C,[5],66 % of control
same,T/C,[1],97 % of control
same,T/C,[6],174 % of control
same,T/C,[7],150 % of control
same,T/C,[10],100 % of control
same,T/C,[8],109 % of control
O=C(CO)c1ccc([N+](=O)[O-])cc1,T/C,[9],72 % of control
same,T/C,[5],105 % of control
same,T/C,[6],90 % of control
same,T/C,[8],97 % of control
same,T/C,[11],80 % of control
O=C1C2(Cl)C3(Cl)C4(Cl)C(Cl)(Cl)C5(Cl)[C@]3(Cl)C1(Cl)[C@]5(Cl)C24Cl (some centres not stated),T/C,[13],88 % of control
same,T/C,[14],75 % of control
same,T/C,"dose: 100.0 mg/kg/injection, schedule: Q07DX002 (ip), vehicle: Klucel (hydroxypropylcellulose) (HPC)",44 % of control
O=S(=O)(O)O.[NH-]C1CCCCC1[NH-].[Pt+2] (configuration not stated),T/C,"dose: 0.31 mg/kg/injection, schedule: Q07DX002 (ip), vehicle: dextrose",56 % of control
same,T/C,"dose: 0.62 mg/kg/injection, schedule: Q07DX002 (ip), vehicle: dextrose",82 % of control
same,T/C,"dose: 0.63 mg/kg/injection, schedule: Q07DX002 (ip), vehicle: dextrose",80 % of control
same,T/C,"dose: 0.63 mg/kg/injection, schedule: Q07DX003 (ip), vehicle: dextrose",51 % of control
same,T/C,"dose: 1.25 mg/kg/injection, schedule: Q07DX002 (ip), vehicle: dextrose",41 % of control
same,T/C,"dose: 1.25 mg/kg/injection, schedule: Q07DX003 (ip), vehicle: dextrose",76 % of control
same,T/C,"dose: 2.5 mg/kg/injection, schedule: Q07DX002 (ip), vehicle: dextrose",19 % of control and 36 % of control
same,T/C,"dose: 5.0 mg/kg/injection, schedule: Q07DX002 (ip), vehicle: dextrose",21 % of control
same,T/C,"dose: 5.0 mg/kg/injection, schedule: Q07DX003 (ip), vehicle: dextrose",29 % of control
same,T/C,"dose: 10.0 mg/kg/injection, schedule: Q07DX002 (ip), vehicle: dextrose",9 % of control
CCCCn1cnc2c(=S)nc[nH]c21,T/C,[7],87 % of control and 96 % of control
same,T/C,[12],17 % of control and 21 % of control
Nc1nc(N)c2c(Cl)c(CNc3ccc(Cl)c(Cl)c3)ccc2n1,T/C,[5],73 % of control and 82 % of control and 88 % of control
same,T/C,[8],5 % of control and 19 % of control
[CH3][Sn]([CH3])([Cl])[S]CCN,T/C,[1],71 % of control
same,T/C,[2],47 % of control
same,T/C,[10],90 % of control
N=C(N)SCc1cccc2c(=O)cc(-c3ccccc3)oc12,T/C,"dose: 800.0 mg/kg/injection, schedule: Q07DX002 (ip), vehicle: saline",52 % of control and 69 % of control
Cn1cnc([N+](=O)[O-])c1[Se]c1nc(N)nc2nc[nH]c12,T/C,"dose: 3.12 mg/kg/injection, schedule: Q07DX002 (ip), vehicle: water",62 % of control
same,T/C,"dose: 6.25 mg/kg/injection, schedule: Q07DX002 (ip), vehicle: water",36 % of control
same,T/C,"dose: 12.5 mg/kg/injection, schedule: Q07DX002 (ip), vehicle: water",87 % of control
same,T/C,"dose: 25.0 mg/kg/injection, schedule: Q07DX002 (ip), vehicle: water",73 % of control
same,T/C,"dose: 50.0 mg/kg/injection, schedule: Q07DX002 (ip), vehicle: water",54 % of control
same,T/C,"dose: 100.0 mg/kg/injection, schedule: Q07DX002 (ip), vehicle: water",57 % of control
N[C@@H](Cc1ccc(N(CCCl)CCCl)cc1)C(=O)O,T/C,"dose: 2.0 mg/kg/injection, schedule: Q07DX002 (ip), vehicle: Klucel (hydroxypropylcellulose) (HPC)",81 % of control
same,T/C,"dose: 2.0 mg/kg/injection, schedule: Q07DX003 (ip), vehicle: saline",106 % of control
same,T/C,"dose: 2.5 mg/kg/injection, schedule: Q07DX003 (ip), vehicle: saline with Tween-80",51 % of control
same,T/C,"dose: 3.75 mg/kg/injection, schedule: Q07DX002 (ip), vehicle: Klucel (hydroxypropylcellulose) (HPC)",54 % of control and 61 % of control
same,T/C,"dose: 4.0 mg/kg/injection, schedule: Q07DX002 (ip), vehicle: Klucel (hydroxypropylcellulose) (HPC)",107 % of control
same,T/C,"dose: 5.0 mg/kg/injection, schedule: Q07DX003 (ip), vehicle: saline with Tween-80",44 % of control
same,T/C,"dose: 7.5 mg/kg/injection, schedule: Q07DX002 (ip), vehicle: Klucel (hydroxypropylcellulose) (HPC)",33 % of control and 37 % of control
same,T/C,"dose: 15.0 mg/kg/injection, schedule: Q07DX002 (ip), vehicle: Klucel (hydroxypropylcellulose) (HPC)",16 % of control
same,T/C,"dose: 16.0 mg/kg/injection, schedule: Q07DX002 (ip), vehicle: saline",8 % of control (2×) and 11 % of control
O=C(O)Cc1cccc2c(=O)c(-c3ccccc3)c(-c3ccccc3)oc12,T/C,[13],90 % of control
same,T/C,[14],92 % of control
C[Si](C)(CCl)N[Si](C)(C)CCl,T/C,[7],99 % of control
same,T/C,[8],100 % of control
same,T/C,[12],150 % of control
